In PubChem BioAssay AID1645861 (Buhrlage Lab, Dana-Farber Cancer Institute and Novartis …, 2021):
Activity calls are given as the source filed them.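 How the source made its calls: active means compounds whose peak USP7 inhibition across the dose series reached 30% or more; inactive means the rest.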

Target: Ubiquitin carboxyl-terminal hydrolase 7 (Homo sapiens) (UniProt Q93009)
Experiment: Biochemical concentration-response for ubiquitin-specific peptidase 7 DUB inhibitors, verifying primary hits (AID 1645861)
Settings: purified USP7, Ub-rhodamine cleavage fluorescence, 60 min

Ubiquitin carboxyl-terminal hydrolase 7 (Homo sapiens), sequence (Q93009 whole entry, looked up): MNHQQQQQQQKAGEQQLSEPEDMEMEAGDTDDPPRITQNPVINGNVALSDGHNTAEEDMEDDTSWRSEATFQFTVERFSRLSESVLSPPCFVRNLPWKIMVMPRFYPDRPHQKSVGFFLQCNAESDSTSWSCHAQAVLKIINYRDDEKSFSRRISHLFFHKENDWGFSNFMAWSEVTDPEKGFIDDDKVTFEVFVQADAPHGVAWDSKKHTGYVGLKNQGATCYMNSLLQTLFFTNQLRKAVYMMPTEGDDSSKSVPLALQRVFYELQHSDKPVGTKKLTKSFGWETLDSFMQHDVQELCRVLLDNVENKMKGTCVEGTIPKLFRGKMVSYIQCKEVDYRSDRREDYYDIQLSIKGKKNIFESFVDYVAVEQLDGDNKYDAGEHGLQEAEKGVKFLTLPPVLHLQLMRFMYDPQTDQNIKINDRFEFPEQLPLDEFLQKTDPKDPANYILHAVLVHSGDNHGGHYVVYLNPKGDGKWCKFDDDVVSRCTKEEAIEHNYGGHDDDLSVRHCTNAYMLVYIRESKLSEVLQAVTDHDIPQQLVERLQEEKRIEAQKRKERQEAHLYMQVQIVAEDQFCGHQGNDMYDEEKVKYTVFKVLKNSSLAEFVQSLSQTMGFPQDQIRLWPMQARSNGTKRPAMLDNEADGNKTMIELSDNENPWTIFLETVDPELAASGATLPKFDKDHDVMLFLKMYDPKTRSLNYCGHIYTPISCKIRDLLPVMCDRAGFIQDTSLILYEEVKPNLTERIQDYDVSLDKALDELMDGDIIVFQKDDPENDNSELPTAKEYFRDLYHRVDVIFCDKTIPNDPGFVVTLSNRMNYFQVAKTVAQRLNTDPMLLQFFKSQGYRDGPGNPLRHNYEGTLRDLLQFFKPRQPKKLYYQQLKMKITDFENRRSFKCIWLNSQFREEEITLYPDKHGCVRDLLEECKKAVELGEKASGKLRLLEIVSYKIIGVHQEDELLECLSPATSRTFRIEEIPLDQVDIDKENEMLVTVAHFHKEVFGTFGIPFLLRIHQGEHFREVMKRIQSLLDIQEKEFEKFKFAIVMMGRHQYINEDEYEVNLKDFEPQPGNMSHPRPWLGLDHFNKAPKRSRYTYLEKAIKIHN

IC50	Compound
> 50 µM (inactive)	Cc1ccc(NC(=O)Cn2c(=O)n(CC(=O)NCc3ccco3)c(=O)c3ccccc32)cc1C
> 50 µM (inactive)	Cn1c(CCNC(=O)c2[nH]nc3c2CCc2ccccc2-3)nc2ccccc21
> 50 µM (inactive)	O=C(O)c1ccccc1C(=O)Nc1ccc(SC(C(=O)Nc2cccc(Cl)c2)c2ccccc2)cc1 (stereo unspecified)
> 50 µM (inactive)	Cc1ccnc(NS(=O)(=O)c2ccc(NC(=O)c3ccc(S(=O)(=O)N(C)Cc4ccccc4)cc3)cc2)n1
> 50 µM (inactive)	O=C(Cn1c(=O)c2ccccc2n(CC(=O)Nc2cccc(F)c2)c1=O)NCCc1ccccc1
> 50 µM (inactive)	O=c1c2ccccc2oc2nc(-c3cccs3)n(-c3ccccc3)c(=O)c12
> 50 µM (inactive)	Cn1c2ccccc2c(=O)c2c(=O)n(Cc3ccccc3)c(-c3ccco3)nc21
> 50 µM (inactive)	COc1ccc(CCNC(=O)Cn2c(=O)c3sccc3n(Cc3cccc([N+](=O)[O-])c3)c2=O)cc1OC
> 50 µM (inactive)	COc1ccc([N+](=O)[O-])cc1NC(=O)COC(=O)c1ccc2[nH]c3c(c2c1)CCCC3
> 50 µM (inactive)	CCc1nc(SCC(=O)Nc2ccc(Cl)c(Cl)c2)c2oc3ccccc3c2n1
0.713 µM	O=c1cc(-c2ccc(O)c(O)c2)oc2cc(O[C@@H]3O[C@H](CO)[C@@H](O)[C@H](O)[C@H]3O)cc(O)c12
> 50 µM (inactive)	COc1ccc(NC(=O)CC(=O)c2ccc([N+](=O)[O-])cc2)cc1S(=O)(=O)Nc1ccc(Cl)cc1
> 50 µM (inactive)	CCCC(O)CCCCCCCc1cc(O)cc(O)c1C(=O)OC(CCC)CCCCCCCc1cc(O)cc(O)c1 (stereo unspecified)
> 50 µM (inactive)	O=C(Nc1cccc(Cl)c1)c1ncn2c1CNS(=O)(=O)c1ccccc1-2
> 50 µM (inactive)	CSCCC(NC(=O)c1ccccc1)c1nc2ccccc2n1CC(=O)Nc1ccccc1 (stereo unspecified)
> 50 µM (inactive)	Cc1cc(NS(=O)(=O)c2ccc(NC(=O)c3ccc(N4CCCC4)c([N+](=O)[O-])c3)cc2)no1
> 50 µM (inactive)	O=c1[nH]c2ccc(S(=O)(=O)Nc3ccc(O)c4ccccc34)cc2[nH]1
> 50 µM (inactive)	CCc1nc(SCC(=O)Nc2cc(Cl)ccc2C)c2oc3ccccc3c2n1
> 50 µM (inactive)	Cc1sc2ccn(C)c(=O)c2c1C(=O)NC1CCCC1
> 50 µM (inactive)	CCOc1ccc(-n2c(SCC(=O)Nc3ccc(C)cc3)nnc2-c2c[nH]c3ccccc23)cc1
> 50 µM (inactive)	O=C(Nc1ccc(F)cc1)Nc1ccccc1OCc1cc(=O)n2ccccc2n1

IC50	Compound
> 50 µM (inactive)	C/C=C/C=C/[C@@H]1Cc2cc(O)cc(O)c2O1
> 50 µM (inactive)	O=C(NCCc1nc2ccccc2n1Cc1ccccc1F)c1ccc(Cl)cc1
28.8 µM	O=C1CC(c2ccco2)Cc2[nH]c(=O)c(-c3nc(-c4ccc(Cl)cc4)cs3)cc21 (stereo unspecified)
> 50 µM (inactive)	O=C(CCCn1c(=O)[nH]c2cc(Cl)ccc2c1=O)NCCCN1CCCC1=O
> 50 µM (inactive)	COc1cc(NC(=O)Cn2c(=O)n(-c3ccc(CC(=O)NCc4ccco4)cc3)c(=O)c3ccccc32)cc(OC)c1
> 50 µM (inactive)	O=C(Cn1c(=O)c2ccccc2n(CC(=O)Nc2ccc(Br)cc2)c1=O)NCc1ccco1
> 50 µM (inactive)	Cc1nc(N2CCN(c3ccc(Cl)cc3)CC2)c2oc3ccccc3c2n1
12.9 µM	COc1cc(C)cc2c1C(=O)c1c(cc(O)c(Cl)c1O)C2=O
> 50 µM (inactive)	COc1ccc(Cl)cc1NC(=O)c1nc(-c2cn(-c3ccccc3)nn2)no1
> 50 µM (inactive)	COc1ccccc1NC(=O)c1nc(-c2cn(-c3cccc(F)c3)nn2)no1
40.2 µM	Cc1ccc(NC(=O)Nc2ccc(C)n(CC(=O)Nc3ccc(C)cc3C)c2=O)cc1
> 50 µM (inactive)	CN1C(=O)COc2cc(-c3noc(C(=O)NCc4ccc(F)cc4)n3)ccc21
> 50 µM (inactive)	COCCn1c(=O)[nH]c2cc(C(=O)NCCNc3ccc([N+](=O)[O-])cc3C#N)ccc2c1=O
> 50 µM (inactive)	Cc1cc(C(=O)NC2(O)C(=O)c3ccccc3C2=O)n(C)n1
9.52 µM	CO/C=C/C(=O)c1cc2cnc3c(=N)cc(NC(C)=O)c([nH]1)c23
3.39 µM	Cc1nn(-c2ccccc2)c2c1C1(C(=O)Nc3ccccc31)N1C(=N2)Sc2ccccc21 (stereo unspecified)
> 50 µM (inactive)	Cc1cc(=O)n2c3c(c4c(cc13)c(CO)cc(=O)n4C)OC2
> 50 µM (inactive)	CC(OC(=O)c1cc(S(=O)(=O)Nc2ccccc2F)ccc1Cl)C(=O)Nc1ccc([N+](=O)[O-])cc1C(F)(F)F (stereo unspecified)
34.1 µM	Cc1cccc(C(=O)Nc2cccc(SC(C(=O)Nc3ccc(Cl)c(C(=O)O)c3)c3ccccc3)c2)c1 (stereo unspecified)
6.18 µM	CCOC(=O)C1CCN(Cc2cc(=O)oc3cc(O)c(O)cc23)CC1
> 50 µM (inactive)	O=C(Nc1ccccc1Cc1ccccc1)c1nc2n(n1)-c1ccccc1S(=O)(=O)N2

IC50	Compound
> 50 µM (inactive)	CCOc1ccc2c(c1)c(=O)c(C(=O)c1ccc(C)cc1)cn2CC(=O)Nc1ccc(C)cc1
> 50 µM (inactive)	O=C(Cc1ccc(-n2c(=O)c3ccccc3n(CC(=O)Nc3ccc(Cl)cc3Cl)c2=O)cc1)NCc1ccco1
> 50 µM (inactive)	Cc1ccc(Cn2cc(C(=O)Nc3ccccc3C(N)=O)ccc2=O)cc1
46.9 µM	COc1ccc(-c2nc3c(c(=O)c4ccccc4n3C)c(=O)n2Cc2ccco2)cc1
> 50 µM (inactive)	O=C(CCCn1c(=O)c2sccc2n(CC(=O)NCCC2=CCCCC2)c1=O)NCc1ccc2c(c1)OCO2
> 50 µM (inactive)	COc1cc2c(=O)n(CC3CCCO3)c(=O)n(CC(=O)c3ccc4c(c3)OCO4)c2cc1OC (stereo unspecified)
> 50 µM (inactive)	COc1ccc(NC(=O)c2cc(-c3cccnc3)n[nH]2)cc1Cl
> 50 µM (inactive)	COc1cccc(NC(=O)Cn2c3ccccc3n3c(=O)cc(-c4ccccc4)nc23)c1
> 50 µM (inactive)	Cc1ccc(CNC(=O)CCCn2c(=O)c3sccc3n(CC(=O)OCc3ccccc3)c2=O)cc1
> 50 µM (inactive)	CC1=CC(=O)C(C2=C(O)C(=O)C(C)=CC2=O)=C(O)C1=O
> 50 µM (inactive)	COc1ccccc1CNC(=O)CCCCn1c(=O)c2ccccc2n(Cc2ccc(C)cc2)c1=O
> 50 µM (inactive)	CC(=O)N1CCc2cc(S(=O)(=O)NC(Cc3ccccc3)C(=O)Nc3cccc(Cl)c3C)ccc21 (stereo unspecified)
> 50 µM (inactive)	O=c1[nH]c(C2CCN(S(=O)(=O)c3ccc(S(=O)(=O)NC4CCCCC4)cc3)CC2)nc2c1nnn2Cc1c(F)cccc1Cl
> 50 µM (inactive)	O=C(COc1ccccc1)Nc1ccc(-c2nc3cnccc3o2)c(O)c1
> 50 µM (inactive)	COc1ccc(OCCn2c(C3CC(=O)N(c4cccc(C)c4)C3)nc3ccccc32)cc1 (stereo unspecified)
45.8 µM	O=C(O)c1cccc(NC(=O)C(Sc2cccc(NC(=O)c3cccc(Cl)c3)c2)c2ccccc2)c1 (stereo unspecified)
22.5 µM	Cc1ccc(-c2nc(NC(=O)COc3ccc(Cl)cc3)no2)cc1
16.8 µM	COc1cc(O)c2c(O)c3c(cc2c1)C[C@@]1(O)CC(=O)C(C(N)=O)=C(O)[C@@]1(O)C3=O
> 50 µM (inactive)	CC(C)c1ccc(NC(=O)COC(=O)c2ccc(NS(=O)(=O)c3ccc4c(c3)OCCO4)cc2)cc1
42.7 µM	Cc1ccc(N2CC(c3nc4ccccc4n3CCOc3cccc(C)c3)CC2=O)cc1 (stereo unspecified)
> 50 µM (inactive)	CC(NC(=O)c1nc2n(n1)-c1ccccc1S(=O)(=O)N2)c1cc2ccccc2o1 (stereo unspecified)

IC50	Compound
> 50 µM (inactive)	O=C(NC1(O)C(=O)c2ccccc2C1=O)c1cccc2c1-c1ccccc1C2=O
> 50 µM (inactive)	Cc1cccc(Cl)c1NC(=O)Nc1ccc(NC(=O)c2ccccc2O)cc1
45.4 µM	Cc1ccc(NC(=O)Cc2nnc3cc(-c4nc(C)no4)ccn23)cc1
> 50 µM (inactive)	COC(=O)c1ccc2c(=O)n(CCCCCC(=O)NCCc3ccccc3Cl)c(=O)[nH]c2c1
> 50 µM (inactive)	CCN(CC)Cc1ccc(-c2nnc(-c3cnc4onc(C)c4c3)o2)o1
> 50 µM (inactive)	COC(=O)c1ccccc1NC(=O)Cn1c(=O)n(CCCC(=O)NCc2ccco2)c(=O)c2ccccc21
> 50 µM (inactive)	CCOc1ccc(-c2nnc(-c3cnc4onc(C5CCCC5)c4c3)o2)cc1
> 50 µM (inactive)	C[C@H](Cc1cc2c(cc1O)OCO2)[C@@H](C)Cc1cc2c(cc1O)OCO2
> 50 µM (inactive)	C[C@@H]1OC2=C(C(=O)c3cccc(O)c3C2=O)[C@H](O)[C@@H]1O
> 50 µM (inactive)	CC(=O)Nc1ccc(NC(=O)c2ccc3c(c2)CC(c2ccccc2)OC3=O)cc1 (stereo unspecified)
> 50 µM (inactive)	O=C(NCc1ccc2c(c1)OCO2)c1cn(-c2cccc(Cl)c2)nn1
> 50 µM (inactive)	CCCn1cc(C(=O)N2CCC3(CC2)CC2(CO3)Nc3ccccc3-n3cccc32)c(C)n1 (stereo unspecified)
> 50 µM (inactive)	COc1ccc(NC(=O)Cn2c(=O)n(Cc3ccco3)c(=O)c3ccc(C(=O)NC4CCCC4)cc32)cc1
> 50 µM (inactive)	O=C(Nc1ccccc1F)c1nc(-c2cn(-c3ccc(F)cc3)nn2)no1
> 50 µM (inactive)	COC(=O)c1ccc2c(=O)n(CCCCCC(=O)NCCc3ccc(S(N)(=O)=O)cc3)c(=O)[nH]c2c1
> 50 µM (inactive)	Cc1cc(NC(=O)Cn2c(=O)n(Cc3ccco3)c(=O)c3ccc(C(=O)NCCc4ccccc4)cc32)n[nH]1
> 50 µM (inactive)	COc1ccc(C)cc1NC(=O)C1CC(=O)Nc2nc3ccccc3n21 (stereo unspecified)
> 50 µM (inactive)	CCOC(=O)C1CCN(C(=O)c2ccc3c(c2)NC(=O)C2CCCN32)CC1 (stereo unspecified)
> 50 µM (inactive)	CCOc1ccc(-c2noc(-c3nn(-c4cccc(OC)c4)ccc3=O)n2)cc1
> 50 µM (inactive)	O=C(Cn1c(=O)n(-c2ccc(CC(=O)NC3CCCC3)cc2)c(=O)c2ccccc21)Nc1ccccc1[N+](=O)[O-]
> 50 µM (inactive)	COc1cc(O)cc2c1C(=O)OC(C)CCCCCCC2 (stereo unspecified)

Compound	IC50
O=C1CSC(c2ccc3c(c2)OCO3)c2c(n(C3CCCCCC3)[nH]c2=O)N1 (stereo unspecified)	> 50 µM (inactive)
COC1=C(C2=C(OC)C(=O)c3cc4c(c(O)c3C2=O)C(=O)OC(C)C4)C(=O)c2c(cc3c(c2O)C(=O)OC(C)C3)C1=O (stereo unspecified)	44.7 µM
